Tests used:
[1] = system: HIV-1NL4-3 Q40H pseudovirus; type: cell-based; conditions: HIV-1NL4-3 Q40H; TZM-bl, 48 h; mean ± SD of three independent experiments
Experimental: The mutations were created using double-stranded DNA templates and selection of mutants with DpnI. For each mutation, the two primers contained the desired mutation and occupied the same starting and ending positions on opposite strands of the plasmid DNA. DNA synthesis was carried out by PCR in a 50-µL reaction volume using 1 µL of denatured plasmid template (1 ng/µL), 50 pmol of upper and lower primers and 5 U of high-fidelity thermostable polymerase PrimeStar (Takara, Dalian, China). PCR amplification was carried out for one cycle of denaturation at 98°C for 5 min, then 18 cycles of 98°C for 15 s and 68°C for 15 min, followed a final extension at 72°C for 10 min. The amplicons were treated with the restriction enzyme DpnI for 1 h at 37°C. DpnI-resistant molecules, which were rich in the desired mutants, were recovered by transforming Escherichia coli strain-DH5α to antibiotic resistance. The successful mutations were confirmed by sequencing.
(§2) HIV-1 pseudoviruses were generated as described previously [32], [55]–[56]. Briefly, 293T cells (5×10^6 cells in 15 ml of growth medium in a T-75 culture flask) were cotransfected with 10 µg of an Env-expressing plasmid and 20 µg of a backbone plasmid pSG3deltaEnv that encodes Env-defective, luciferase-expressing HIV-1 genome using Lipofectamine 2000 reagent (Invitrogen). Pseudovirus-containing culture supernatants were harvested 48 hours after transfection and filtered by 0.45-mm pore size, and stored at −80°C in 1-ml aliquots until use. The 50% tissue culture infectious dose (TCID50) of a single thawed aliquot of each pseudovirus batch was determined in TZM-bl cells. […] Briefly, the peptides were prepared with ten series dilutions in a 3-fold stepwise manner and mixed with 100 TCID50 viruses and incubated 1 hour at room temperature. The mixture was added to TZM-bl cells (10^4/well) and incubation at 37°C for 48 hours. Luciferase activity was measured using luciferase assay regents (Promega, Medison, WI) and a Luminescence Counter (Promega) according to the manufacture's instructions.

HIV-1 = conditions: cited from earlier work
[2] = system: N36 (NHR target sequence); conditions: complex with N36; CD at 222 nm, 20–90°C, 1°C per min, 1 µM in PBS buffer
Experimental: CD spectroscopy was performed as previously described, [26]. […] The final peptide concentration was 10 µM in PBS buffer (pH 7.2). The isolated N- and C-peptides were also tested. The CD spectra of these individual peptides and peptide mixtures were acquired on MOS-450 spectropolarimeter (Bio-Logic, France) using a 1 nm bandwidth with a 1 nm step resolution from 190 to 260 nm at room temperature. The spectra were corrected by subtraction of a blank corresponding to the solvent. Data were averaged over three accumulations. […] Tm value was detected at protein concentration of 1 µM in PBS buffer.

[3] = system: HIV-1NL4-3 V38A pseudovirus; type: cell-based
Experimental: as §2

[4] = system: HIV-1NL4-3 V38A/N42T pseudovirus; type: cell-based
Experimental: as §2

[5] = system: HIV-1HXB2 Env-mediated cell-cell membrane fusion (TZM-bl / HL2/3 cells); conditions: read-out: IC50, Env-mediated cell-cell fusion; TZM-bl with HL2/3 cells, 6 h, 37°C, luciferase; three independent experiments
Experimental: Cell fusion was monitored using a reporter gene assay based on activation of HIV LTR-driven luciferase cassette in TZM-bl (Target) cells by HIV-1 tat from the HL2/3 (Effector) cells. Briefly, the TZM-bl cells were plated in 96-well clusters (2×10^4 per well) and incubated at 37°C overnight. […] Luciferase activity was measured using luciferase assay regents (Promega, Medison, WI) and a Luminescence Counter (Promega) according to the manufacture's instructions. Background luminescence in TZM-bl cells was determined without addition of HL2/3 cells.

[6] = system: AE01 pseudovirus (CRF01_AE); type: cell-based, HIV-1; conditions: R5, TZM-bl, 48 h, triplicate, mean ± SD of at least three independent experiments
Description: (§1) A panel of plasmids encoding HIV-1 Envs were obtained through the AIDS Research and Reference Reagent Program (ARRRP), Division of AIDS, NIAID, NIH, including subtype A Env clones pSVIII-92RW020.5 and 92UG037.8 from Dr. B.H. Hahn; subtype B Env clones SC422661.8, TRO.11 and AC10.0.29 from Drs. D. Montefiori, F. Gao and M. Li, pRHPA4259.7 and pREJO4541.67 from Drs. B.H. Hahn and J.F. Salazar-Gonzalez, and pCAAN5342.A2 from Drs. B.H. Hahn and D.L. Kothe; subtype C Env clones Du172.17 and Du422.1 from Drs. D. Montefiori, F. Gao, S. Abdool Karim and G. Ramjee, CAP45.2.00.G3 from Drs. L. Morris, K. Mlisana and D. Montefiori, ZM197M.PB7 from Drs. B.H. Hahn, Y. Li and J.F. Salazar-Gonzalez, ZM109F.PB4 from Drs. E. Hunter and C. Derdeyn. Six CRF07_BC Env clones (CH064.20, CH070.1, CH091.9, CH110.2, CH119.10 and CH120.6) were generous gifts by Dr. Y. Shao in the Chinese Center for Disease Control and Prevention, Beijing, China. A panel of Env clones derived from subtype B′ (B01, B02, B04, and 43-22), CRF01_AE (SHX335.24, YN192.31, AE01, AE03, GX2010.36, GX11.13, GX2010.36H, BJ5.11), and CRF07_BC (BC02, BC03, BC05, BC07, BC14, SC19-15, BJ22-5, YN148R-9, XJ50-6, HB5-3) were kindly provided by Dr. Y. Wang from the National Institute for the Control of Pharmaceutical and Biological Products, Beijing, China.

[7] = system: REJO4541 pseudovirus (subtype B); type: cell-based, HIV-1; conditions: R5, TZM-bl, 48 h, triplicate, mean ± SD of three independent experiments
Description: as §1

[8] = system: BC14 pseudovirus (CRF07_BC); type: cell-based, HIV-1; conditions: R5, TZM-bl, 48 h, triplicate, mean ± SD of at least three independent experiments
Description: as §1

[9] = system: YN148r-9 pseudovirus (CRF07_BC); type: cell-based, HIV-1; conditions: YN148r-9, CRF07_BC, R5; TZM-bl, 48 h; triplicate, mean ± SD of at least three independent experiments
Description: as §1

[10] = system: BJ5.11 pseudovirus (CRF01_AE); type: cell-based, HIV-1; conditions: BJ5.11, CRF01_AE, R5; TZM-bl, 48 h; triplicate, mean ± SD of at least three independent experiments
Description: as §1

[11] = system: CH110 pseudovirus (CRF07_BC); type: cell-based, HIV-1; conditions: R5, TZM-bl, 48 h, triplicate, mean ± SD of at least three independent experiments
Description: as §1

[12] = system: CH064 pseudovirus (CRF07_BC); type: cell-based, HIV-1; conditions: R5, TZM-bl, 48 h, triplicate, mean ± SD of at least three independent experiments
Description: as §1

[13] = system: ZM197M.PB7 pseudovirus (subtype C); type: cell-based, HIV-1; conditions: R5, TZM-bl, 48 h, triplicate, mean ± SD of three independent experiments
Description: as §1

[14] = system: CH120 pseudovirus (CRF07_BC); type: cell-based, HIV-1; conditions: R5, TZM-bl, 48 h, triplicate, mean ± SD of at least three independent experiments
Description: as §1

[15] = system: ZM109F.PB4 pseudovirus (subtype C); type: cell-based, HIV-1; conditions: R5, TZM-bl, 48 h, triplicate, mean ± SD of three independent experiments
Description: as §1

[16] = system: GX2010.36H pseudovirus (CRF01_AE); type: cell-based, HIV-1; conditions: R5, TZM-bl, 48 h, triplicate, mean ± SD of at least three independent experiments
Description: as §1

[17] = system: SF162.LS pseudovirus (subtype B); type: cell-based, HIV-1; conditions: R5, TZM-bl, 48 h, triplicate, mean ± SD of three independent experiments
Description: as §1

enfuvirtide
IC50 [1]: 731 ± 35.2 nM
inhibition of viral entry (in words) (HIV-1): low nanomolar concentration
Tm of C-peptide/N36 complex [2]: undetectable
IC50 ([3]; HIV-1NL4-3 V38A, TZM-bl, 48 h, mean ± SD of three independent experiments): 1260 ± 182 nM
resistance change with V38A (in words) ([3]; V38A single mutation): high-fold resistance changes
IC50 ([4]; HIV-1NL4-3 V38A/N42T, TZM-bl, 48 h, mean ± SD of three independent experiments): > 3000 nM
resistance change with V38A/N42T (in words) ([4]; V38A/N42T double mutations): high-fold resistance changes
IC50 [5]: 56.2 nM
IC50 [6]: 24.8 ± 2.25 nM
IC50 [7]: 78.1 ± 11.3 nM
IC50 [8]: 109 ± 52.6 nM
IC50 [9]: 131 ± 14.7 nM
IC50 [10]: 342 ± 132 nM
IC50 [11]: 18.6 ± 3.15 nM
IC50 [12]: 61.7 ± 12.5 nM
IC50 [13]: 63.3 ± 17 nM
IC50 [14]: 50.4 ± 4.22 nM
IC50 [15]: 76.4 ± 2.69 nM
IC50 [16]: 25.9 ± 0.28 nM
IC50 [17]: 43.5 ± 9.16 nM

From publication PMC3293837, “Biophysical Property and Broad Anti-HIV Activity of Albuvirtide, a 3-Maleimimidopropionic Acid-Modified Peptide Fusion Inhibitor” (PLoS ONE, 2012)
